Active and inactive are the calls of the source. For most assays here, no stated cut-off is given here; in the data, actives have a measured EC50 and inactives only a lower limit.
Experiments:
[1] = Luminescence Cell-Based Dose Response HTS to Identify Inhibitors of 5'UTR Stem-Loop Driven Prion Protein mRNA Translation in H4 Neuroglioblastoma Cells. [Related pubchem assays: 1827 (Project Summary), 1813 (Primary HTS)]; format: functional
[2] = inhibitors of SNCA 5'UTR-driven reporter translation, confirmation, H4 neuroglioma cells, luminescence (AID 1988); format: functional, cell-based
[3] = inhibitors of firefly luciferase expression or activity, dose response, H4 neuroglioma cells, luminescence (AID 1990); format: functional, cell-based
[4] = target: T1, Heat shock factor protein 1 (Mus musculus, UniProt P38532); assay: inhibition of MG132-induced HSE-luciferase signal, confirmation, cell-based, NIH3T3, luminescence, dose retest (AID 2382); format: functional;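 further: NIH3T3 fibroblasts with HSF1-driven luciferase reporter stressed by proteasome inhibitor MG132; luminescence from HSF1-driven luciferase expression after 8 hours of MG132 stress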
T1 sequence (P38532 whole entry): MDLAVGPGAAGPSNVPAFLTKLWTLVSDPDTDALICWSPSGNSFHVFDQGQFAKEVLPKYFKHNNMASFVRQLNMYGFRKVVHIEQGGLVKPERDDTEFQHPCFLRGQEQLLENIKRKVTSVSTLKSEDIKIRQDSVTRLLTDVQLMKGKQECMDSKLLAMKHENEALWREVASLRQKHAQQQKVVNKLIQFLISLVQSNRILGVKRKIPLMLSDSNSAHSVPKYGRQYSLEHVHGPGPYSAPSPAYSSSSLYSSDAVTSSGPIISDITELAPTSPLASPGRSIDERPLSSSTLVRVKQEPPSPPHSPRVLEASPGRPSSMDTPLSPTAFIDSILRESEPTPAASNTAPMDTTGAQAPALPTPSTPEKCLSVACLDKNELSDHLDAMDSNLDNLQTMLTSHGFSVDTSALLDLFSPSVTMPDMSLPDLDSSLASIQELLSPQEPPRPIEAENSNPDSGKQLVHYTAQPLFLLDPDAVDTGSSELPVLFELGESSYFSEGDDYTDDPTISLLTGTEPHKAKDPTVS

[5] = P. falciparum Dd2 growth inhibitors, dose response, SYBR Green, cherry-picked samples (AID 1159567); format: functional, cell-based
[6] = cytotoxicity toward NIH3T3 fibroblasts, dose response, counter-screen, cell-based, ATP luminescence, mouse fibroblasts (AID 2010); format: functional;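 further: cells exposed to compound for about 90 hours before reading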
[7] = inhibitors of intracellular T. cruzi replication, confirmation, NIH3T3 host cells, beta-gal luminescence (AID 2044); format: functional, cell-based;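 further: intracellular parasites grown in NIH/3T3 mouse fibroblasts as host cells; luminescent beta-galactosidase reporter signal from transgenic T. cruzi replicating inside host cells; inhibitors lower the luminescence signal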
[8] = target: Glyceraldehyde-3-phosphate dehydrogenase (Homo sapiens, UniProt P04406)
[9] = Luminescence Cell-Based Dose Response HTS to Identify Activators of Luciferase Translation or Activity in H4 […] Cells. [Related pubchem assays: 1829 (Project Summary), 1814 (Primary HTS)]; format: functional
H4 = assay: Luminescence Cell-Based Dose Response HTS to Identify Activators of 5'UTR Stem-Loop Driven Prion Protein mRNA Translation in H4 Neuroglioblastoma Cells. [Related pubchem assays: 1829 (Project Summary), 1814 (Primary HTS)]; format: functional; details: Homo sapiens
[10] = C. albicans growth with fluconazole, confirmation, fluorescence, retest (AID 2467); format: functional, cell-based
[11] = NIH-3T3 fibroblast cytotoxicity, dose response, cytotoxicity control, cell-based, fluorescence, Alamar Blue, secondary assay (AID 2327); format: functional;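 further: NIH-3T3 mouse fibroblasts cultured with fluconazole at 8 µg/mL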
Paired box protein Pax-8 = Paired box protein Pax-8 (Homo sapiens, UniProt Q06710); assay: inhibitors of PAX8-driven TPO luciferase reporter, dose response, RMG-I cells, cherry-pick (AID 687027); format: functional, cell-based;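 further: luciferase reporter driven by Pax8 target thyroperoxidase promoter measured by SteadyGlo luminescence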
Chain of Paired box protein Pax-8 (Q06710 whole entry): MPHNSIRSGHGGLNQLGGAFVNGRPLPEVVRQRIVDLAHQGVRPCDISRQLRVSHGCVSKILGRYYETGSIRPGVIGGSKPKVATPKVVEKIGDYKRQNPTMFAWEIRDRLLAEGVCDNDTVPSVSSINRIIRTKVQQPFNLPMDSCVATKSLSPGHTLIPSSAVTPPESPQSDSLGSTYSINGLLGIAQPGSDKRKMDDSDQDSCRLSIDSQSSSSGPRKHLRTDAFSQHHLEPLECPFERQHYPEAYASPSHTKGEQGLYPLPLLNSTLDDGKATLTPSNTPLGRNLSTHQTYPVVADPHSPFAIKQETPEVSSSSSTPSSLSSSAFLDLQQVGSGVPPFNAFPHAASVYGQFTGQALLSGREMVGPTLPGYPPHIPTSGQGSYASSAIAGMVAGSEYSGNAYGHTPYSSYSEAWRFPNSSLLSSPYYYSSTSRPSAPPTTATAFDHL

Chain of Glyceraldehyde-3-phosphate dehydrogenase (P04406 whole entry): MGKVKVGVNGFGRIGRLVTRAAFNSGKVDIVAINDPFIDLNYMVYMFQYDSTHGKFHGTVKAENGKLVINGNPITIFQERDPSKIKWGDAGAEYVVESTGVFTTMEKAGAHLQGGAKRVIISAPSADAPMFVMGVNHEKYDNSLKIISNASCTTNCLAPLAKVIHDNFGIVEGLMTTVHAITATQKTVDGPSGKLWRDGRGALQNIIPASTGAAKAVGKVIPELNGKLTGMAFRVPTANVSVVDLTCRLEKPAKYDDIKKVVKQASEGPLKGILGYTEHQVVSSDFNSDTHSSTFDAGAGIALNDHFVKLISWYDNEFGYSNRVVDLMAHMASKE

With `COc1cccc(C2Nc3ccccc3C(=O)N2Cc2ccccc2)c1` (centres undefined) as the compound, how does the EC50 [1] read?
The EC50 was > 120 µM (not active).

And the EC50 [2]?
Its EC50 is > 120 µM (not active).

And the EC50 [3]?
The EC50 was > 120 µM (not active).

With `CNC(=S)N(CCc1c(C)[nH]c2ccc(C)cc12)Cc1cc(OC)c(OC)c(OC)c1` as the compound, how does the EC50 [4] read?
Its EC50 is > 195 µM (not active).

Which AC50 [5] does the source give for `O=C(c1cnccn1)N1CC(=O)N2[C@@H](CO)[C@H](c3ccc(C#CCc4ccccc4)cc3)[C@@H]2C1` here?
Its AC50 is 5.99 µM (active).

With `CCOc1ccc(CNC(=O)c2ccc3nc(N4CCOCC4)sc3c2)cc1` as the compound, how does the EC50 [4] read?
The EC50 was > 195 µM (not active).

For `CN1CCc2c(sc3c2C(=O)NC(c2ccc(-c4ccc(Cl)cc4)o2)N3)C1` (centres undefined), which EC50 [4] is on record?
The EC50 was > 195 µM (not active).

With `COc1ccc(-n2nc(C)cc2N)cc1` as the compound, how does the EC50 [4] read?
Its EC50 is > 195 µM (not active).

Which results are given for `O=C(NCc1ccccn1)c1ccc(Cn2c(=S)[nH]c3ccc(Br)cc3c2=O)cc1`?
EC50 [1]: > 120 µM (not active); EC50 [2]: > 120 µM (not active); EC50 [3]: > 120 µM (not active)

Which EC50 [4] does the source give for `O=C(Cc1ccsc1)Nc1ccc(S(=O)(=O)C(F)F)cc1` here?
Its EC50 is > 195 µM (not active).

With `N#C[C@@H]1[C@@H](c2ccccc2-c2ccccc2F)[C@@H](CO)N1C(=O)C1CCOCC1` as the compound, how does the AC50 [5] read?
Its AC50 is 24.2 µM (active).

Which EC50 [6] does the source give for `Cc1cccc2c1Sc1ccc(Cl)cc1CC2N1CCNCC1` (centres undefined) here?
Its EC50 is 12.9 µM (active).

What about the EC50 [7] of the same compound?
Its EC50 is 3.13 µM (active).

And the EC50 [1]?
The EC50 was 116 µM (active).

What about the EC50 [2] of the same compound?
The EC50 was 11.7 µM (active).

And the EC50 [3]?
The EC50 was > 120 µM (not active).

With `CC(=O)N1N=C(c2cccc([N+](=O)[O-])c2)CC1c1ccc(Br)cc1` (centres undefined) as the compound, how does the IC50 [8] read?
Its IC50 is > 100 µM (not active).

For `O=c1cccc2n1Cc1cc3ccccc3nc1-2`, which EC50 [9] is on record?
The EC50 was 38.3 µM (active).

What about the EC50 (H4) of the same compound?
The EC50 was 37.6 µM (active).

With `C[C@H](CO)N1C[C@H](C)[C@H](CN(C)C(=O)Nc2ccc(N3CCCCC3)cc2)OCc2cnnn2CCCC1=O` as the compound, how does the AC50 [5] read?
Its AC50 is > 39 µM (inactive).

For `Cc1nc(NC(=O)C2CC2)sc1C(=O)Nc1ccccc1Cl`, which EC50 [9] is on record?
Its EC50 is 11.6 µM (active).

What about the EC50 (H4) of the same compound?
Its EC50 is 9.56 µM (active).

Which EC50 [10] does the source give for `Cc1cc2c(cc(C(=O)OCC(=O)NCc3ccco3)n2C)s1` here?
Its EC50 is > 38 µM (not active).

And the EC50 [11]?
The EC50 was 22.4 µM (active).

For `Cc1nnc(N/N=C/c2cc(C)n(-c3ccc(F)cc3)c2C)n1N`, which EC50 [4] is on record?
The EC50 was 29.7 µM (active).

For `C=CCOc1ccn(C)c(=O)n1`, which EC50 [4] is on record?
The EC50 was > 195 µM (not active).

With `O=S(=O)(Cc1ccccc1)N1[C@H](CO)[C@@H](c2ccccc2)C12CN(CCC(F)(F)F)C2` as the compound, how does the AC50 [5] read?
Its AC50 is 5.09 µM (active).

With `O=C(Nc1cc2nn(-c3ccccc3)nc2cc1Cl)c1ccc([N+](=O)[O-])o1` as the compound, how does the IC50 [8] read?
Its IC50 is > 100 µM (not active).

Which EC50 [1] does the source give for `CC(C)C(=O)Nc1cccc(C(=O)Nc2ccccc2C(=O)O)c1` here?
The EC50 was > 120 µM (not active).

And the EC50 [2]?
The EC50 was > 120 µM (not active).

And the EC50 [3]?
Its EC50 is 47.8 µM (active).

With `COc1ccc(F)cc1-c1cc(NC=O)c2ncc(-c3cc(OC)c(OC)c(OC)c3)n2c1` as the compound, how does the AC50 (Paired box protein Pax-8) read?
The AC50 was 3.49 µM (active).

— ChEMBL document CHEMBL1201862, “PubChem BioAssay data set” (2004)
